The text below walks through data of paper PMC12136037, “Type II kinase inhibitors that target Parkinson’s disease–associated LRRK2” (Science Advances, 2025).

Where two headings read alike, the source gives them in different places.

Holding throughout (experiment): DSF 100 kinase selectivity screen;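 as to dTm: compound tested at 20 µM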
What all share (format): binding

Assay [1] addresses T1, ~100 representative kinases (Homo sapiens, UniProt Q9Y6E0).
T1 construct: Recombinant protein kinase domains with a concentration of 2 μM
The conditions noted are these: protein MST3; average of three replicates. A digest of the protocol:
(§1)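 Each kinase domain, at 2 μM, is mixed with 20 μM test compound and SYPRO Orange in Hepes (20 mM, pH 7.5) with 500 mM NaCl. Temperature is then raised at 3°C/min and fluorescence-monitored unfolding yields the melting temperature change, ΔTm in degrees Celsius.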

For assay [2], the target named is T2, ~100 representative kinases (Homo sapiens, UniProt O75582).
T2 construct: Recombinant protein kinase domains with a concentration of 2 μM
The conditions noted are these: Protein RPS6KA5; DSF; average of three replicates. A digest of the protocol: as §1

In assay [3] the target is T3, ~100 representative kinases (Homo sapiens, UniProt P21675).
T3 construct: Recombinant protein kinase domains with a concentration of 2 μM
As to conditions: Protein TAF1; DSF; average of three replicates. A digest of the protocol: as §1

Assay [4] addresses T4, ~100 representative kinases (Homo sapiens, UniProt P15735).
T4 construct: Recombinant protein kinase domains with a concentration of 2 μM
T4 sequence (P15735 1-406): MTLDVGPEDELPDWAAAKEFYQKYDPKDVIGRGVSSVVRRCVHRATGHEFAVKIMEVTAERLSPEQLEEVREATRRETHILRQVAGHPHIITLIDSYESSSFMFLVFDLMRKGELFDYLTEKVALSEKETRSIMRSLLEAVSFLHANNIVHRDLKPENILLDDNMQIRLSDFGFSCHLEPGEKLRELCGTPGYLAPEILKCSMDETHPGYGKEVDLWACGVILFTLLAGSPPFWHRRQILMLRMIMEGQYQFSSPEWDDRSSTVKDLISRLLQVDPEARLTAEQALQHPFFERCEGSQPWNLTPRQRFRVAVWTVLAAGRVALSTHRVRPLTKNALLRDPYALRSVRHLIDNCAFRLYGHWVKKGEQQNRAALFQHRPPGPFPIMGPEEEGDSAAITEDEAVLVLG
The conditions noted are these: protein PHKG2; average of three replicates. The method in brief: as §1

Assay [5] has as its target T5, ~100 representative kinases (Homo sapiens, UniProt Q13873).
T5 construct: Recombinant protein kinase domains with a concentration of 2 μM
T5 sequence (Q13873 27-1038): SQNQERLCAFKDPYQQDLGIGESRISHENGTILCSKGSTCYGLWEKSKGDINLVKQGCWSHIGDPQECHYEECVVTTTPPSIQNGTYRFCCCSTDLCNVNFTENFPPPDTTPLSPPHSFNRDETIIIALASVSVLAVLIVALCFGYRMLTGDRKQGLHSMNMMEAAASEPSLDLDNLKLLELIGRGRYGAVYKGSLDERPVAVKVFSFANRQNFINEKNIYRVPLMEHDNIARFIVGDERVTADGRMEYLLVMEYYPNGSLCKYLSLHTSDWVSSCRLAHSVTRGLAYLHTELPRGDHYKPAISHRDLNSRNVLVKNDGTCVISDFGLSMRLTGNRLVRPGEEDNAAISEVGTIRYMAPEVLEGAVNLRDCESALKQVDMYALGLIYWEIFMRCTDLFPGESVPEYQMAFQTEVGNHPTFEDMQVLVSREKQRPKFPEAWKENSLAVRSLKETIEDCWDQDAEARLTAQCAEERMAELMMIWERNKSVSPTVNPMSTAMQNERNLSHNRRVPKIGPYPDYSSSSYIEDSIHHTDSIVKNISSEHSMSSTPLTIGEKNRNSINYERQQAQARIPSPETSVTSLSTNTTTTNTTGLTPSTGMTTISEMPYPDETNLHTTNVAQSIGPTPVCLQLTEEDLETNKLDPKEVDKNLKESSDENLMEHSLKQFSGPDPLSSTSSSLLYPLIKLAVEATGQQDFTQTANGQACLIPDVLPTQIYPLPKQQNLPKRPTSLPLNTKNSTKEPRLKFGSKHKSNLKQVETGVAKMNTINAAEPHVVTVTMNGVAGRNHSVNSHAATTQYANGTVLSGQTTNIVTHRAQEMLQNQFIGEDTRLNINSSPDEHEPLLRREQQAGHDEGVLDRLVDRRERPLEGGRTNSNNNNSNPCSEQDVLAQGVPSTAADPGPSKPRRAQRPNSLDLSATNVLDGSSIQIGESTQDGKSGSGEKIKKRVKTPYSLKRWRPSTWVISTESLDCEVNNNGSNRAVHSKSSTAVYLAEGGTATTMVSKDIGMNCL
As to conditions: Protein BMPR2; average of three replicates. A digest of the protocol: as §1

The subject of assay [6] is ~100 representative kinases. As to conditions: for dTm: Protein BRD, average of three replicates. The method in brief: as §1
Assay [7] concerns the target T6, ~100 representative kinases (Homo sapiens, UniProt Q12866).
T6 construct: Recombinant protein kinase domains with a concentration of 2 μM
T6 sequence (Q12866 21-999): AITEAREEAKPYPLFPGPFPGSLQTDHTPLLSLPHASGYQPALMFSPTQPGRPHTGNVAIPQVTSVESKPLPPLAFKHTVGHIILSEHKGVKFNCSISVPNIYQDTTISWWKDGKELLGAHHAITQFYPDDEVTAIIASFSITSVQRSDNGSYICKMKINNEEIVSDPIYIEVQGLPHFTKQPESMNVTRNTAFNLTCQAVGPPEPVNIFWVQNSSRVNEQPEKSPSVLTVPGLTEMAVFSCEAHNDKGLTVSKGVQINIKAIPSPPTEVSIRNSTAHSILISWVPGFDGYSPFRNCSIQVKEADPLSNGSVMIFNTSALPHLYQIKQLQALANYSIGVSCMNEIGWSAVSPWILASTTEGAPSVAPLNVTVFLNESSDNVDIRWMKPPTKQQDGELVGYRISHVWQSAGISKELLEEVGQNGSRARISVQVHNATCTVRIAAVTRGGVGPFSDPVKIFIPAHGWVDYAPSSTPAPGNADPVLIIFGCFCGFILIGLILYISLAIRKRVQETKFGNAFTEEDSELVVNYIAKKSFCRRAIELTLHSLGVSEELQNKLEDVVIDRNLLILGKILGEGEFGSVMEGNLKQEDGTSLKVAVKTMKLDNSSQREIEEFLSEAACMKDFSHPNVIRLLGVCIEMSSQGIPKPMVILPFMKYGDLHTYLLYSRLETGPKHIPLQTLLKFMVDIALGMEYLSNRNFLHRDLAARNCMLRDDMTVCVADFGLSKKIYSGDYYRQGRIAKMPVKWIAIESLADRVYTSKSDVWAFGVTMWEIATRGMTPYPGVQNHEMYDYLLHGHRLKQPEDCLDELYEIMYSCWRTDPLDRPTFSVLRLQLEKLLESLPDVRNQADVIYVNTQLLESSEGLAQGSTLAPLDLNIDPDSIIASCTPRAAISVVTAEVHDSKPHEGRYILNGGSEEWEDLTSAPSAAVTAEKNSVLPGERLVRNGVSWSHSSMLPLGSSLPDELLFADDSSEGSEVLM
The conditions noted are these: protein MERTK; average of three replicates. The method in brief:
as §1

The mark [8] stands for this setting: number of kinases with thermal shift >5 K divided by total number of kinases screened.
Setting [9] is: number of proteins of the DSF panel with dTm >5K.
[10] abbreviates: selectivity score: # >5K divided by # of proteins tested in the DSF panel.

T1 sequence (Q9Y6E0 whole entry, the tested form may be a part): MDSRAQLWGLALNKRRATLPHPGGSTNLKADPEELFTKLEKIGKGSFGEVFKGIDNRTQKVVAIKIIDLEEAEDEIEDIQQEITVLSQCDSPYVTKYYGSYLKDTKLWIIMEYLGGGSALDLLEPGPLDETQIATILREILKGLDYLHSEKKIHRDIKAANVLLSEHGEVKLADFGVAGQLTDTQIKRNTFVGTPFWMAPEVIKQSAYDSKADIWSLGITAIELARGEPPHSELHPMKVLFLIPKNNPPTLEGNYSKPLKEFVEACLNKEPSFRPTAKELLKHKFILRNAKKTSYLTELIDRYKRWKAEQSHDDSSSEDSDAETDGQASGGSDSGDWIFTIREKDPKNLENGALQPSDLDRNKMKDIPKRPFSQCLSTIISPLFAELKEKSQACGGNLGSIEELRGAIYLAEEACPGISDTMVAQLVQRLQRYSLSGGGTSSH
T2 sequence (O75582 whole entry, the tested form may be a part): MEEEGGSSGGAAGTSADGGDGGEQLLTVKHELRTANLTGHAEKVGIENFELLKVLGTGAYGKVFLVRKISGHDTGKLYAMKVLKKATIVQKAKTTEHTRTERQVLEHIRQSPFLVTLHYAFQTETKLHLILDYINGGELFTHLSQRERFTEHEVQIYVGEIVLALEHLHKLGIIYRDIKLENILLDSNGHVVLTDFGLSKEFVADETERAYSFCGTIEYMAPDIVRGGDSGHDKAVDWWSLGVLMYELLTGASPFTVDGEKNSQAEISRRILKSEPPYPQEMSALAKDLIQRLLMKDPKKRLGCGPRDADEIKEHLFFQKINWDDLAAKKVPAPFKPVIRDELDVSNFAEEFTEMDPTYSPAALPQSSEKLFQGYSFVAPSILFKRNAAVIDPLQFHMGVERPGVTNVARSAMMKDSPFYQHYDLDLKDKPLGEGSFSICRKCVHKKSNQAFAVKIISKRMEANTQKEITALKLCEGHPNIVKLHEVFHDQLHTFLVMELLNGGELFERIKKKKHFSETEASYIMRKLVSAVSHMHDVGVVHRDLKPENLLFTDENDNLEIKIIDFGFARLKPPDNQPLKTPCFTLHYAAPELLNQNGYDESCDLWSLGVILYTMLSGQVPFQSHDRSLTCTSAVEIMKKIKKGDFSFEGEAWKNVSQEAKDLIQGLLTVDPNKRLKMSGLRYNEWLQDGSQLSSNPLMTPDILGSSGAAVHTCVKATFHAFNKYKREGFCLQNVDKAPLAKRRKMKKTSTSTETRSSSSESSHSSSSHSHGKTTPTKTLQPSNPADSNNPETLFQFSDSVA
T3 sequence (P21675 whole entry, the tested form may be a part): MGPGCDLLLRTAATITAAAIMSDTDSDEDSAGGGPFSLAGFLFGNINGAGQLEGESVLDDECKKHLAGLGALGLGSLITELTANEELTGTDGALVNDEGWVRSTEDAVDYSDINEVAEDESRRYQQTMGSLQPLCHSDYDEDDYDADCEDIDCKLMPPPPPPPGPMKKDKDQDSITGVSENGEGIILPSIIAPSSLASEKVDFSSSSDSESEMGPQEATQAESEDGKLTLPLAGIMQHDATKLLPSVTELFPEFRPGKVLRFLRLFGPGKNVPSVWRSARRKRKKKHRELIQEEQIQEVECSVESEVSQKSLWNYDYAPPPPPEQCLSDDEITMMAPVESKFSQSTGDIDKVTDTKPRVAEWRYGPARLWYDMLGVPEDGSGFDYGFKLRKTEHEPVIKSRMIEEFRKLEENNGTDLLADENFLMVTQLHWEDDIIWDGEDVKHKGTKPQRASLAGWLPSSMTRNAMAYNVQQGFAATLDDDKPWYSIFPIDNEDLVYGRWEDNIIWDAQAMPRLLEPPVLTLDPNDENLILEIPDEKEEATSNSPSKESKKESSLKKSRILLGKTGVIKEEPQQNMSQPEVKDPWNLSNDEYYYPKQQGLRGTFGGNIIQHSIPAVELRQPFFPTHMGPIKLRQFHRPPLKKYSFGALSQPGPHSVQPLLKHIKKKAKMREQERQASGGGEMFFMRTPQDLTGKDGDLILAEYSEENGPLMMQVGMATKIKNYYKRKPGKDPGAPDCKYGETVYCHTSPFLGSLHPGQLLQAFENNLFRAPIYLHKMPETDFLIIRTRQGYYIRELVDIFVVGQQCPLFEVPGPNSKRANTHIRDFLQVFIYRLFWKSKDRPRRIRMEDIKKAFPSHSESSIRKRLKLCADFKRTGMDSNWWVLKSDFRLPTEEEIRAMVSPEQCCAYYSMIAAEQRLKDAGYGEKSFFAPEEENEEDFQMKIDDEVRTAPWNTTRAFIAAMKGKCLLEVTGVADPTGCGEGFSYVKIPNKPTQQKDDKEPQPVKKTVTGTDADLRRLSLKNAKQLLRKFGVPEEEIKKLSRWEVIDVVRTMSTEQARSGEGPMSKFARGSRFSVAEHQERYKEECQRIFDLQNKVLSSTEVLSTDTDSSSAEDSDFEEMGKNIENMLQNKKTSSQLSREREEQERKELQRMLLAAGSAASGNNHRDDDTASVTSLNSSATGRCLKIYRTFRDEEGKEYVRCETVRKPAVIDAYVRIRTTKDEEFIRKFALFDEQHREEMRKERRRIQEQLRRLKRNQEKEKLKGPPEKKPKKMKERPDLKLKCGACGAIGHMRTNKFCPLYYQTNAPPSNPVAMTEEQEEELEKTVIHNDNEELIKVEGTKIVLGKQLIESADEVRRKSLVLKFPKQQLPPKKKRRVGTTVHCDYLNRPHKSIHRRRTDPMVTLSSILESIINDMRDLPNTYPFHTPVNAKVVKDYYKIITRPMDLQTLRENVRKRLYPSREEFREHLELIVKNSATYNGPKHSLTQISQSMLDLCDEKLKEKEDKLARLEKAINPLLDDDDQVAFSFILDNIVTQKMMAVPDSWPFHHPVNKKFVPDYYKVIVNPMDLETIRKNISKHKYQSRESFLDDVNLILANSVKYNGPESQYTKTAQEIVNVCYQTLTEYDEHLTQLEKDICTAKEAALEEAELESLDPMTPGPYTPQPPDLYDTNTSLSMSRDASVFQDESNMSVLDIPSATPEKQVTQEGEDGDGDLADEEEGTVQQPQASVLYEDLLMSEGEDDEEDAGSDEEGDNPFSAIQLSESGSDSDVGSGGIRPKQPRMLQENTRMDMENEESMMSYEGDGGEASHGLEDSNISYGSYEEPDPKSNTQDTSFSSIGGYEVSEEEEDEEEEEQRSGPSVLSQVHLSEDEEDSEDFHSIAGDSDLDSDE

Turning to `COc1cc(C(=O)N2CCOCC2)c(F)cc1Nc1nc(N(C)C)c2c(Cl)c[nH]c2n1` [Compound 36], the dTm in assay [1] is given as -3.75 K; in assay [2], 2.79 K; in assay [3], 1.23 K; in assay [4], 7.95 K; in assay [5], 0.63 K; in assay [6] it was -0.29 K. The compound also registered a dTm in assay [7] of -0.62 K. Moreover, the “S(5K)” value in assay [6] (setting [8]) worked out at 0.14; in assay [6] (setting [10]) it was 0.139. The “# >5K” value in assay [6] (setting [9]) is recorded as 14.
For `COc1cc(S(C)(=O)=O)ccc1Nc1nc(N(C)C)c2c(Cl)c[nH]c2n1` [Compound 37], the dTm in assay [1] was -2.45 K; in assay [2] it was 1.80 K; in assay [3], 1.43 K; in assay [4] it was 3.65 K; in assay [5], -0.0179 K; in assay [6] it was 0.52 K. Further, the dTm in assay [7] was -0.61 K. The entries for the “S(5K)” value in assay [6] (setting [8]) and in assay [6] (setting [10]) were 0.05 and 0.050, respectively. In assay [6] (setting [9]), the “# >5K” value turned out to be 5.
As for `COc1cc2c(Oc3ccc(NC(=O)C4(C(=O)Nc5ccc(F)cc5)CC4)cc3F)ccnc2cc1OCCCN1CCOCC1` [Foretinib, reference compound], the dTm is reported as 4.06 K in assay [1]; 0.57 K in assay [2]; 0.54 K in assay [3]; 1.61 K in assay [4]; 0.59 K in assay [5]; 13.18 K in assay [7]. Besides, the “# >5K” value in assay [6] is 30. Also, the “S(5K)” value in assay [6] came to 0.300.
On to `CCNc1nc(Nc2cc(F)c(C(=O)N3CCOCC3)cc2OC)ncc1C(F)(F)F` [GNE-7915], for which the dTm in assay [1] is reported as 0.91 K; in assay [2] it was 3.91 K; in assay [3], -0.58 K; in assay [4], 1.11 K; in assay [5], 1.37 K; in assay [6], -0.21 K. The dTm in assay [7] was 2.33 K. Also, the “# >5K” value in assay [6] (setting [9]) turned out to be 3. In assay [6] (setting [10]), the “S(5K)” value is 0.029.
As for `C[C@@H]1CN(c2cc(-c3n[nH]c4ccc(OC5(C)CC5)cc34)ncn2)C[C@H](C)O1` [MLi2], the dTm in assay [1] is 0.43 K; in assay [2], -1.02 K; in assay [3], -0.34 K; in assay [4], 4.00 K; in assay [5] it was 0.0116 K; in assay [6], 0.12 K. In assay [7], the dTm stood at 0.0155 K. Also, the “# >5K” value in assay [6] (setting [9]) is 2. In addition, the “S(5K)” value in assay [6] (setting [10]) is given as 0.019.
Turning to `Cn1cc(-c2c[nH]c3ncnc(N4CCOCC4)c23)cc1C#N` [PFE-360], the dTm in assay [1] is given as 2.72 K; in assay [2], 0.69 K; in assay [3] it was -0.43 K; in assay [4] it was 1.53 K; in assay [5], 2.89 K; in assay [6], -0.51 K. Moreover, in assay [7], the dTm worked out at 0.31 K. For the same compound, the “# >5K” value in assay [6] (setting [9]) came to 12. Also, the “S(5K)” value in assay [6] (setting [10]) amounted to 0.118.
